{
  "source": "paper PMC8556375",
  "about": "“Binding interaction of a ring-hydroxylating dioxygenase with fluoranthene in Pseudomonas aeruginosa DN1” (Scientific Reports, 2021)",
  "target": "T1, RHD alpha subunit (RhdA, RS30940) (Pseudomonas aeruginosa, UniProt Q9HTF4)",
  "T1 construct": "gene gbcA; alpha subunit alone, 428 residues, His-tagged, pET-28a (NdeI/EcoRI), E. coli BL21 Star (DE3); no tag removal told",
  "T1 sequence (Q9HTF4 1-429)": "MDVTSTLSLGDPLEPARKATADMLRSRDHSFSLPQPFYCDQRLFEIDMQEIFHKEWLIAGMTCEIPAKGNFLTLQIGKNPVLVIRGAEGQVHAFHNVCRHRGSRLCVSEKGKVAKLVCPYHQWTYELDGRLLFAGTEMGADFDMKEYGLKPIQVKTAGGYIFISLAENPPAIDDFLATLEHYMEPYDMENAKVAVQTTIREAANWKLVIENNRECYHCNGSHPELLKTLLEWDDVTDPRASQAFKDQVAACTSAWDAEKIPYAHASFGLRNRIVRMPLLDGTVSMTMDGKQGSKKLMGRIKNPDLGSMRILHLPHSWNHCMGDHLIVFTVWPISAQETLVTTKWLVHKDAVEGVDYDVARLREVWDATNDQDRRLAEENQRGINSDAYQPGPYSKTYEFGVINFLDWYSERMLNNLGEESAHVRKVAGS",
  "test": "intrinsic tryptophan fluorescence quenching (Stern-Volmer)",
  "format": "binding",
  "conditions": "phosphate buffer pH 7.5; 5.0 x 10^-6 mol/L protein; 298, 304 and 310 K; excitation 278 nm",
  "data": [
    {"molecule": "c1ccc2c(c1)-c1cccc3cccc-2c13", "note": "[fluoranthene]", "values": [
      {"measurement": "Stern-Volmer parameters", "value": "intrinsic fluorescence of RHD alpha subunit could be quenched by fluoranthene"}
    ]}
  ]
}
